Test results as given in patent publication US20140121103A1, “COMPOSITIONS COMPRISING FUNGICIDAL SUBSTITUTED DITHIINES AND FURTHER ACTIVES” (BASF SE, priority 2011, published 2014).
Where two headings read alike, the source gives them in different places.

How the values were obtained:
Format in all cases: cell-based
Septoria tritici = assay: Activity against leaf blotch on wheat caused by Septoria tritici (microtiter plate); conditions: active alone
Pyricularia oryzae = conditions: active alone
Leptosphaeria nodorum = assay: Activity against wheat leaf spots caused by Leptosphaeria nodorum (microtiter plate)
Botrytis cinerea = assay: Activity against the grey mold Botrytis cinerea in the microtiterplate test; conditions: active alone
Alternaria solani = assay: Activity against early blight caused by Alternaria solani (microtiter plate); conditions: active alone
[1] = Parastagonospora nodorum, 168 h, active alone, read-out: Observed efficacy

## CC(C)(C)C(O)(CCc1ccc(Cl)cc1)Cn1cncn1 (centres unmarked) [Tebuconazol]
Septoria tritici; 0.25 ppm
  Observed efficacy: 54%

## Cc1cc(C)nc(Nc2ccccc2)n1 [Pyrimethanil]
Pyricularia oryzae; 16 ppm
  Observed efficacy: 72%

## CC(C)NC(=O)N1CC(=O)N(c2cc(Cl)cc(Cl)c2)C1=O [Iprodion]
Septoria tritici; 4 ppm
  Observed efficacy: 0%
Pyricularia oryzae; 4 ppm
  Observed efficacy: 29%
Leptosphaeria nodorum; Parastagonospora nodorum, 168 h, active alone, 4 ppm, read-out: Observed efficacy
  inhibition of growth at 4 ppm: 54%

## COCC(=O)N(c1c(C)cccc1C)[C@H](C)C(=O)OC [Metalaxyl-M]
Septoria tritici; 4 ppm
  Observed efficacy: 11%
Pyricularia oryzae; 4 ppm
  Observed efficacy: 8%
Leptosphaeria nodorum; active alone, 4 ppm
  Observed efficacy: 26%

## CO/C=C(/C(=O)OC)c1ccccc1Oc1cc(Oc2ccccc2C#N)ncn1 [Azoxystrobin]
Septoria tritici; 0.25 ppm
  Observed efficacy: 65%

## OC(Cc1ccccc1Cl)(Cn1nc[nH]c1=S)C1(Cl)CC1 (centres unmarked) [Prothioconazol]
Leptosphaeria nodorum; [1]
  inhibition of growth at 1 ppm: 52%

## O=C(Nc1ccccc1-c1ccc(Cl)cc1)c1cccnc1Cl [Boscalid]
Pyricularia oryzae; 16 ppm
  Observed efficacy: 6%
Leptosphaeria nodorum; [1]
  inhibition of growth at 16 ppm: 25%

## Cc1ccc(C(C)NC(=O)[C@@H](NC(=O)OC(C)C)C(C)C)cc1 (some centres unmarked) [Iprovalicarb]
Septoria tritici; 4 ppm
  Observed efficacy: 13%
Pyricularia oryzae; 4 ppm
  Observed efficacy: 6%

## COC(=O)N(OC)c1ccccc1COc1ccn(-c2ccc(Cl)cc2)n1 [Pyraclostrobin]
Leptosphaeria nodorum; Parastagonospora nodorum, 168 h, active alone, 0.25 ppm, read-out: Observed efficacy
  inhibition of growth at 0.25 ppm: 57%

## N#CC1=C(C#N)SC(C#N)=C(C#N)S1 [Compound I.A, 2,3,5,6-tetracyano-[1,4]dithiine]
Septoria tritici; 0.016 ppm
  Observed efficacy: 8%
Septoria tritici; 1 ppm
  Observed efficacy: 18%
Septoria tritici; 4 ppm
  Observed efficacy: 74%
Botrytis cinerea; 0.063 ppm
  Observed efficacy: 1%
Botrytis cinerea; 4 ppm
  Observed efficacy: 14%
Alternaria solani; 1 ppm
  Observed efficacy: 11%
Alternaria solani; 4 ppm
  Observed efficacy: 46%
Pyricularia oryzae; 4 ppm
  Observed efficacy: 20%
Leptosphaeria nodorum; Parastagonospora nodorum, 168 h, read-out: Observed efficacy
  inhibition of growth at 4 ppm: 53%
Leptosphaeria nodorum; [1]
  inhibition of growth at 1 ppm: 7%

## CC1COC(Cn2cncn2)(c2ccc(Oc3ccc(Cl)cc3)cc2Cl)O1 (centres unmarked) [Difenoconazol]
Pyricularia oryzae; 1 ppm
  Observed efficacy: 27%

## CC(C)[C@H](NC(=O)O)C(=O)N[C@H](C)c1nc2ccc(F)cc2s1 [Benthiavalicarb]
Septoria tritici; 4 ppm
  Observed efficacy: 10%
Pyricularia oryzae; 4 ppm
  Observed efficacy: 3%
Leptosphaeria nodorum; active alone, 4 ppm
  Observed efficacy: 27%

## CC1(C(=O)Nc2ccc(O)c(Cl)c2Cl)CCCCC1 [Fenhexamid]
Septoria tritici; 16 ppm
  Observed efficacy: 28%
Leptosphaeria nodorum; [1]
  inhibition of growth at 16 ppm: 37%

## CCCCCCCCc1c(CC)nc2ncnn2c1N [Ametoctradin]
Septoria tritici; 4 ppm
  Observed efficacy: 13%
Alternaria solani; 4 ppm
  Observed efficacy: 4%
Pyricularia oryzae; 4 ppm
  Observed efficacy: 12%
Leptosphaeria nodorum; active alone, 4 ppm
  Observed efficacy: 31%

## N#Cc1c(Cl)c(Cl)c(Cl)c(C#N)c1Cl [Chlorothalonil]
Botrytis cinerea; 4 ppm
  Observed efficacy: 58%
Alternaria solani; 1 ppm
  Observed efficacy: 17%
Leptosphaeria nodorum; [1]
  inhibition of growth at 1 ppm: 22%

## CCCN(CCOc1c(Cl)cc(Cl)cc1Cl)C(=O)n1ccnc1 [Prochloraz]
Septoria tritici; 0.063 ppm
  Observed efficacy: 20%

## Cc1ccc(-c2c(Cl)nc(C#N)n2S(=O)(=O)N(C)C)cc1 [Cyazofamid]
Septoria tritici; 1 ppm
  Observed efficacy: 2%
Pyricularia oryzae; 1 ppm
  Observed efficacy: 8%
Leptosphaeria nodorum; [1]
  inhibition of growth at 1 ppm: 25%

## Cn1cc(C(=O)Nc2ccccc2-c2cc(F)c(F)c(F)c2)c(C(F)F)n1 [Fluxapyroxad]
Pyricularia oryzae; 0.063 ppm
  Observed efficacy: 7%
Leptosphaeria nodorum; active alone, 0.063 ppm
  Observed efficacy: 23%

## COC(=O)Nc1nc2ccccc2[nH]1 [Carbendazim]
Septoria tritici; 0.016 ppm
  Observed efficacy: 0%
Botrytis cinerea; 0.063 ppm
  Observed efficacy: 75%
Alternaria solani; 4 ppm
  Observed efficacy: 35%
